The values that follow come from article PMC7224568 (PLoS Pathogens, 2020).

“Also recorded” adds a separate entry of the source.

Experiment [1] concerns TCR P14. As to conditions: cited from earlier work.
Experiment [2] has as its system P14 T cells. The format is cell-based, mouse.
In experiment [3] the test system is P14 T cells. Format: cell-based, mouse. The source holds these as a separate data set.
For experiment [4], the system named is P14 T cells. The format is cell-based, mouse. This is another data set of the same source.
The test system of experiment [5] is soluble TCR P14. Format: binding, mouse.
In experiment [6] the test system is soluble TCR P14. Format: binding, mouse. This is another data set of the same source.
Experiment [7] deals with P14 T cells. The format is cell-based, mouse. This is another data set of the same source.
Experiment [8] relates to H-2D^b (pMHC complex). Format: binding, mouse.
In experiment [9] the test system is P14 T cells. The format is cell-based, mouse. The source holds these as a separate data set.
Experiment [10] relates to T cell clone YF.F3. The conditions noted are these: cited from earlier work.
The target of experiment [11] is soluble P14 TCR (mouse). Briefly: ITC. Background: Isothermal titration calorimetry measures the heat released or taken up as one component is titrated into another.
Experiment [12] addresses soluble P14 TCR (mouse). Briefly: SPR. Background: Surface plasmon resonance follows binding to a sensor surface in real time, without labels.

With KAVANFATM [Peptide Y4A], the “agonist class (in words)” value in experiment [1] is reported as “semi-agonist”.

Consider KAPFNFATM [Peptide V3P_Y4F], for which the “TNF and IFNγ production by LCMV-activated P14 T cells (in words)” value in experiment [2] was “produced TNF and IFNγ”. In [3], the “tetramer recognition by LCMV-activated P14 T cells (in words)” value was “a significant amount of the activated P14 T cells recognized the H-2D^b/V3P_Y4F complex”.

Take KAPYNFATM [Peptide V3P]: the “TNF and IFNγ production by P14 T cells (in words)” value in [4] is “induced significant production of TNF and IFNγ”. Besides, the “thermodynamics of P14 binding (in words)” value in [5] is recorded as “mainly enthalpy-driven with almost null contribution of entropy; also recorded: the energy required for P14 recognition of V3P is reduced compared to gp33; also recorded: reduced unfavorable entropic contribution”. Besides, in experiment [5] (pH 7.4), the TΔS was -0.5 ± 0.3 kcal/mol and the ΔH is -8.5 ± 0.5 kcal/mol. In experiment [6], the “P14 TCR binding to pMHC (in words)” value is recorded as “significantly higher binding affinity of soluble P14 TCR to H-2D^b/V3P compared to H-2D^b/gp33”. In addition, the “CD107a expression (degranulation) of P14 T cells (in words)” value in [7] is “induced significant production of TNF and IFNγ, as well as CD107a expression”. In addition, in experiment [8], the “pMHC complex thermal stability (in words)” value is reported as “consistent increase in pMHC complex thermal stability”. Also, in [8] (pH 7.5), the “Tm (50% protein denaturation), in Fig 1A” value came to 57.3 °C and the “Tm (temperature with 50% pMHC denaturation)” value stood at 57.3±0.4 C. Besides, the “P14 TCR down-regulation / internalization (in words)” value in experiment [9] is recorded as “equaled or increased TCR internalization compared to gp33”.

For the substance KAVYNFATM [gp33, reference compound], the “TNF and IFNγ production by LCMV-activated P14 T cells (in words)” value in [2] is “produced TNF and IFNγ”. For the same substance, in [10], the “IFNγ production by clone YF.F3 (in words)” value is on record as “did not produce high amounts IFNγ against gp33” and the “killing of peptide-presenting targets by clone YF.F3 (in words)” value is “killed efficiently targets presenting gp33”. For the same substance, the “TNF and IFNγ production by P14 T cells (in words)” value in experiment [4] is “induced significant production of TNF and IFNγ”. The “thermodynamics of P14 binding (in words)” value in [5] was “entropically unfavorable”. The “CD107a expression (degranulation) of P14 T cells (in words)” value in experiment [7] was “induced significant production of TNF and IFNγ, as well as CD107a expression”. In addition, the “pMHC complex thermal stability (in words)” value in [8] is “equivalent thermal stability”. Also, the “Tm (50% protein denaturation), in Fig 1A” value in experiment [8] (pH 7.5) was 53.7 °C. Besides, the “P14 TCR down-regulation / internalization (in words)” value in experiment [9] is listed as “induced significant TCR down-regulation”.

In general, Kd refers to the free concentration of one partner at which half of the binding sites on the other are occupied at equilibrium, for simple one-to-one binding. Take “H-2D^b/gp33 (from UniProt P01887 21-119) (peptide-MHC)”: in [11], the Kd amounted to 5.8 µM and the dH was -10.2 kcal/mol. Further, the Kd in [12] worked out at 8.6 µM.
